Legend:
IL-31 = test: Phase 2 CSU study: serum IL-31 HTRF assay; format: in vivo, human; details: for IL-31 (ng/mL) Median Percent Change from Baseline: Baseline to Week 12
Excerpt: Blood samples were also collected through Week 12 to evaluate the change in baseline in various biomarkers, including sMRGPRX2, IgG anti-TPO, IgG anti-FCεRI, IgG anti-IgE, and IL-31.
Collection of biological samples for other biomarker research was also part of this study. The following samples for biomarker research were required and were to be collected from all participants in this study: • Serum and plasma samples for soluble biomarkers and cellular tests. Analytes included IgG anti-IgE, IgG anti-FcεRI, IgG anti-TPO, IgE anti-TPO, IL-31, and sMRGPRX2. • Blood samples for immune cell phenotyping, including measurement of eosinophil levels • Blood samples for BTK occupancy in peripheral blood mononuclear cells (PBMCs) at selected sites
For each patient, serum samples were to be collected on each of four visits (Visits 2, 4, 6, and end of study/follow up).
Serum analyte testing was to be performed using the following commercial assays: • sMRGPRX2 ELISA (Cat. No. #MBS933336; MyBioSource) • IL-31 HTRF assay (Cat. No. #62HIL31PEG; Cisbio/PerkinElmer) • IgG anti-TPO ELISA (Cat. No. #ORG503; Orgentec Diagnostica GmbH)
If dilutions were to be prepared, the same dilutions were to be prepared twice from each sample. These were to be measured on different plates. Each plate was to include a standard curve. Samples were to be measured twice for all biomarkers except for sMRGPRX2. Mean measurement values were to be calculated, and the concentration of the biomarker was to be calculated using GraphPad Prism 9 software (4-PL model).
The IL-31 HTRF assay was performed according to the manufacturer's instructions.
Assay data ranges are described below. • sMRGPRX2: 0.1 ng/mL-10 ng/mL • IgG anti-FCεRI: 0-10000 arbitrary units (AU) • IgG anti-TPO: 0-3000 international units (IU) • IgE anti-TPO: 0-500 AU • IgG anti-IgE: 0-100000 AU • IL-31: 0.1 ng/mL-20 ng/mL

cardiac repolarization = details: healthy volunteers (N=51), also supratherapeutic doses; cited from earlier work

## CC(C)(C=C(C#N)C(=O)N1CCC[C@@H](n2nc(-c3ccc(Oc4ccccc4)cc3F)c3c(N)ncnc32)C1)N1CCN(C2COC2)CC1 [rilzabrutinib, (R)-2-[3-[4-amino-3-(2-fluoro-4-phenoxy-phenyl)pyrazolo[3,4-d]pyrimidin-1-yl]piperidine-1-carbonyl]-4-methyl-4-[4-(oxetan-3-yl)piperazin-1-yl]pent-2-enenitrile]
IL-31; 400 mg TID, Week 12
  reduction from baseline median IL-31 levels: 8.1%
IL-31; 400 mg BID
  IL-31 (ng/mL) Median Percent Change from Baseline: −6.8%
IL-31; 400 mg QPM
  IL-31 (ng/mL) Median Percent Change from Baseline: −11.6%
IL-31; 400 mg TID
  IL-31 (ng/mL) Median Percent Change from Baseline: −8.1%
Cardiac repolarization
  effects on cardiac repolarization (ECG parameters incl. corrected QT interval): does not exert clinically relevant effects

From patent US20260256792A1, “TREATMENT OF CHRONIC SPONTANEOUS URTICARIA BY ADMINISTERING (R)-2-[3-[4-AMINO-3-(2-FLUORO-4-PHENOXY-PHENYL)PYRAZOLO[3,4-D]PYRIMIDIN-1-YL]PIPERIDINE-1-CARBONYL]-4-METHYL-4-[4-(OXETAN-3-YL)PIPERAZIN-1-YL]PENT-2-ENENITRILE” (priority 2023, published 2026)
